Reference: paper PMC8956739, “A synthetic lipopeptide targeting top-priority multidrug-resistant Gram-negative pathogens” (Nature Communications, 2022)
Several values for one entry are separate records, joined by “and”; a condition that tells them apart may be missing. Identical values can stand only once. Residues, ends and D or L forms follow the SMILES beside them.

What was measured:
P. aeruginosa ATCC 27853 = test: Neutropenic mouse bloodstream infection model; assay type: in vivo; details: single IV dose 4 mg/kg
In short: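 Female Swiss mice made neutropenic with cyclophosphamide (150 mg/kg day −4, 100 mg/kg day −1), infected IV with 50 µL of 4 × 10^8 CFU/mL. Lipopeptide 4 mg/kg (free base) IV at 2 h post-inoculation, n = 3. Efficacy = Δlog10 CFU/mL blood versus saline at 4 h post-dose.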

Swiss mice = test: Acute toxicity in mice (maximum tolerated dose, IV bolus); assay type: in vivo, mouse; details: replicates 1-4
In short: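 Female Swiss mice (7 weeks, 22–28 g) given single IV tail-vein bolus of lipopeptide in 0.9% saline, dosed as mg/kg free base. Clinical toxicity signs monitored over 0–24 h, most frequently in first 2 h.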

A. baumannii AB5075 = test: Transcriptomic analysis (RNA-Seq) of bacteria; assay type: cell-based, Acinetobacter baumannii; details: for log2FC, gene ABUW_RS01945 (acyl-CoA thioesterase II) / log2FC, gene ABUW_RS02545 (acyl-CoA thioesterase) / log2FC, gene ABUW_RS05045 (acyl-CoA thioesterase) / log2FC, gene ABUW_RS17575 (acyl-CoA thioesterase): pathway Fatty Acid and Lipid Degradation
Experimental: Mid-log phase A. baumannii AB5075 (~10^8 CFU/mL) in CaMHB was treated with colistin (2 and 8 μg/mL), F287, F319 or F365 (equimolar concentration to colistin) for 1 and 4 h. Total RNA was extracted using TRIzol Reagent (Invitrogen, USA) and RNeasy Mini Kit (Qiagen, Germany). Quality check of RNA samples was conducted with NanoDrop (Thermo Fisher Scientific, USA) and Agilent 2100 Bioanalyzer (Agilent Technologies, USA) for sequencing (150 bp paired-end) at Genewiz (Shanghai, China). Raw reads were aligned to A. baumannii AB5075 genome (GCF_000963815, https://www.ncbi.nlm.nih.gov/assembly/GCF_000963815.1/) using subread-aligner (subread 2.0.1) and summarized by featureCounts (subread 2.0.1). Principal component analysis (PCA) was conducted with mixOmics 6.14.1 in R. Differentially expressed genes were determined using limma 3.46.0 with a combination of fold change ≥ 2 and false discovery rate (FDR, by Benjamini–Hochberg algorithm) adjusted P-value ≤ 0.05 (n = 3). Enrichment analysis of gene differential expression in AB5075 was conducted using BioCyc (A. baumannii AB5075, version 25.5). UpSetR 1.4.0, ComplexHeatmap 2.6.2 and circlize 0.4.13 were used for data visualization. Raw data were deposited in Short Reads Archive (SRA) database under accession numbers SRR15235669-SRR15235725.

[1] = H vs Cont, 1h, RNA-Seq A. baumannii AB5075
[2] = H vs Cont, 4h, RNA-Seq A. baumannii AB5075
[3] = H, 4h vs 1h, RNA-Seq A. baumannii AB5075
[4] = L vs Cont, 1h, RNA-Seq A. baumannii AB5075

CC[C@@H]1NC(=O)[C@@H](CC(C)C)NC(=O)[C@H](CCN)NC(=O)[C@@H](NC(=O)[C@H](CN)NC(=O)[C@@H](NC(=O)[C@H](CCN)NC(=O)c2ccc(Cl)cc2Cl)[C@@H](C)O)CCNC(=O)[C@H]([C@@H](C)O)NC(=O)[C@H](CCN)NC(=O)[C@H](CCN)NC1=O [Lipopeptide F365] (HELM PEPTIDE1{[O=C(c1ccc(Cl)cc1Cl)[*:2]].[Dab].T.[NC[C@H](N[*:1])C(=O)[*:2]].[Dab].[Dab].[dL].[Abu].[Dab].[Dab].T}$PEPTIDE1,PEPTIDE1,5:R3-11:R2$$$V2.0)
Log10 CFU/mL blood at 4 h, Mean (P. aeruginosa ATCC 27853; 4 h): 4.36 Log10 CFU/mL blood | Δlog10 CFU/mL blood (mean) (P. aeruginosa ATCC 27853; 4 h, treated minus control, mean of replicates, 4 mg/kg): −3.44 log10 CFU/mL blood | Log10 CFU/mL blood at 4 h, single mouse (P. aeruginosa ATCC 27853; 4 h, 4 mg/kg): 5.03 Log10 CFU/mL blood and 4.95 Log10 CFU/mL blood and 3.10 Log10 CFU/mL blood | Delta Log10 CFU/mL blood at 4 h, single mouse (P. aeruginosa ATCC 27853; treated mouse minus mean of vehicle mice, 4 mg/kg): -2.77 Log10 CFU/mL blood and -2.85 Log10 CFU/mL blood and -4.70 Log10 CFU/mL blood | MTD, single replicate (Swiss mice): 10.1 mg/kg | logFC (Differential gene expression for all genes), Geneid ABUW_RS00005 (A. baumannii AB5075; [1]): 0.01563 | logFC (Differential gene expression for all genes), Geneid ABUW_RS00020 (A. baumannii AB5075; [1]): 0.4229 | logFC (Fold change), gene ABUW_RS00010 (A. baumannii AB5075; [1]): 0.4611 | logFC (Fold change), gene ABUW_RS00030 (A. baumannii AB5075; [1]): -0.6384 | logFC (Fold change), gene ABUW_RS00035 (A. baumannii AB5075; [1]): 1.28 | logFC (Fold change), gene recF (ABUW_RS00015) (A. baumannii AB5075; [1]): -0.2583 | log2FC, gene ABUW_RS01945 (acyl-CoA thioesterase II) (A. baumannii AB5075; H vs Cont, 1h): 0.05276 | log2FC, gene ABUW_RS02545 (acyl-CoA thioesterase) (A. baumannii AB5075; H vs Cont, 1h): 1.462 | log2FC, gene ABUW_RS05045 (acyl-CoA thioesterase) (A. baumannii AB5075; H vs Cont, 1h): 0.342 | log2FC, gene ABUW_RS17575 (acyl-CoA thioesterase) (A. baumannii AB5075; H vs Cont, 1h): -0.4502 | logFC (Differential gene expression for all genes), Geneid ABUW_RS00005 (A. baumannii AB5075; [2]): -0.1188 | logFC (Differential gene expression for all genes), Geneid ABUW_RS00020 (A. baumannii AB5075; [2]): 0.1404 | logFC (Fold change), gene ABUW_RS00010 (A. baumannii AB5075; [2]): 1.271 | logFC (Fold change), gene ABUW_RS00030 (A. baumannii AB5075; [2]): -1.908 | logFC (Fold change), gene ABUW_RS00035 (A. baumannii AB5075; [2]): 1.362 | logFC (Fold change), gene recF (ABUW_RS00015) (A. baumannii AB5075; [2]): -0.8325 | log2FC, gene ABUW_RS01945 (acyl-CoA thioesterase II) (A. baumannii AB5075; H vs Cont, 4h): -0.9573 | log2FC, gene ABUW_RS02545 (acyl-CoA thioesterase) (A. baumannii AB5075; H vs Cont, 4h): 1.303 | log2FC, gene ABUW_RS05045 (acyl-CoA thioesterase) (A. baumannii AB5075; H vs Cont, 4h): 0.7194 | log2FC, gene ABUW_RS17575 (acyl-CoA thioesterase) (A. baumannii AB5075; H vs Cont, 4h): -2.7329 | 4h_1h logFC (Differential gene expression for all genes), Geneid ABUW_RS00005 (A. baumannii AB5075; [3]): -0.4851 | 4h_1h logFC (Differential gene expression for all genes), Geneid ABUW_RS00010 (A. baumannii AB5075; [3]): 0.8595 | 4h_1h logFC (Differential gene expression for all genes), Geneid ABUW_RS00015 (A. baumannii AB5075; [3]): -1.098 | 4h_1h logFC (Differential gene expression for all genes), Geneid ABUW_RS00020 (A. baumannii AB5075; [3]): 0.6821 | logFC (Differential gene expression for all genes), Geneid ABUW_RS00005 (A. baumannii AB5075; [4]): 0.07464 | logFC (Differential gene expression for all genes), Geneid ABUW_RS00020 (A. baumannii AB5075; [4]): -0.04639 | logFC (Fold change), gene ABUW_RS00010 (A. baumannii AB5075; [4]): 0.04206 | logFC (Fold change), gene ABUW_RS00030 (A. baumannii AB5075; [4]): 0.5072 | logFC (Fold change), gene ABUW_RS00035 (A. baumannii AB5075; [4]): -0.01907 | logFC (Fold change), gene recF (ABUW_RS00015) (A. baumannii AB5075; [4]): 0.05956
